Where a name gives a salt, the structure may show the parent alone. Values belong to the compound of their own block, whether it stands above or below them.
Assays:
[1] = tested on: peripheral blood T lymphocytes; conditions: Meng et al. 1997; cited from earlier work
CLL cells = conditions: Lagneaux et al. 2001; not feasible in vivo due to toxicity; cited from earlier work
[2] = cited from earlier work
10C9 = test: MTT assay, cell viability; format: cell-based; conditions: 10C9, Lymphoma, 72 hours exposure
Procedure: (§1) After 72 hours exposure, the viability of the cells was determined by the rate of conversion of the formazan salt measuring the optical density (OD) at 570 nm (MTT assay).

SU-DHL9 = test: MTT assay, cell viability; format: cell-based; conditions: SU-DHL9, Lymphoma, 72 hours exposure
Procedure: as §1

SU-DHL1 = test: MTT assay, cell viability; format: cell-based; conditions: SU-DHL1, Lymphoma, 72 hours exposure
Procedure: as §1

U266 = test: MTT assay, cell viability; format: cell-based; conditions: U266, Myeloma, 72 hours exposure
Procedure: as §1

RAJI = test: MTT assay, cell viability; format: cell-based; conditions: Lymphoma, 72 hours exposure
Procedure: as §1

MDA-231 = test: MTT assay, cell viability; format: cell-based; conditions: MDA-231, Breast, 72 hours exposure
Procedure: as §1

LNCap = test: MTT assay, cell viability; format: cell-based; conditions: Prostate, 72 hours exposure
Procedure: as §1

HCT-116 = test: MTT assay, cell viability; format: cell-based; conditions: HCT-116, Colon, 72 hours exposure
Procedure: as §1

MCF7 = test: MTT assay, cell viability; format: cell-based; conditions: MCF7, Breast, 72 hours exposure
Procedure: as §1

RPMI8226 = test: MTT assay, cell viability; format: cell-based; conditions: RPMI8226, Myeloma, 72 hours exposure
Procedure: as §1

[3] = tested on: Chronic lymphocytic leukemia cells (CLL); test: Flow cytometry (propidium iodide, DiOC6) of CLL cells after 24 hours exposure; format: cell-based, human; conditions: 10 μM, FIG. 2
Procedure: After 24 hours exposure, the percentage of living (lower-right corner), apoptotic (lower-left corner) and dead (higher-left corner) were analyzed by flow cytometry using propidium iodide (y axis) and DiOC6 (x axis). The results, showing the activity of the (+) and (−) enantiomers against CLL cells, are seen in FIG. 2.

[4] = in vivo; cited from earlier work
[5] = tested on: Chronic lymphocytic leukemia cells (CLL); test: Viable CLL cells after 48 hours exposure, dye exclusion and flow cytometric analysis; format: cell-based, human
Procedure: (§2) After 48 hours exposure, the number of viable cells was determined by dye exclusion and flow cytometric analysis.

[6] = tested on: control normal lymphocytes (PBL); test: Viable normal lymphocytes after 48 hours exposure, dye exclusion and flow cytometric analysis; format: cell-based, human; conditions: 10 μM
Procedure: as §2

[7] = cited from earlier work; remark: listed apart in the source
[8] = in vivo; cited from earlier work; remark: listed apart in the source
NCI-H460 = test: NCI In Vitro Cell Line Screening; format: cell-based; conditions: Homo sapiens; NCI-H460, Non-Small Cell Lung Cancer
Procedure: (§3) The human tumor cell lines of the cancer screening panel are grown in RPMI 1640 medium containing 5% fetal bovine serum and 2 mM L-glutamine. For a typical screening experiment, cells are inoculated into 96 well microtiter plates in 100 μL at plating densities ranging from 5,000 to 40,000 cells/well depending on the doubling time of individual cell lines. After cell inoculation, the microtiter plates are incubated at 37° C., 5% CO2, 95% air and 100% relative humidity for 24 h prior to addition of experimental drugs. After 24 h, two plates of each cell line are fixed iin situ with TCA, to represent a measurement of the cell population for each cell line at the time of drug addition (Tz).
(§4) Experimental drugs are solubilized in dimethyl sulfoxide at 400-fold the desired final maximum test concentration and stored frozen prior to use. At the time of drug addition, an aliquot of frozen concentrate is thawed and diluted to twice the desired final maximum test concentration with complete medium containing 50 μg/ml gentamicin. Additional four, 10-fold or ½ log serial dilutions are made to provide a total of five drug concentrations plus control. Aliquots of 100 μl of these different drug dilutions are added to the appropriate microtiter wells already containing 100 μl of medium, resulting in the required final drug concentrations. Following drug addition, the plates are incubated for an additional 48 h at 37° C., 5% CO2, 95% air, and 100% relative humidity. For adherent cells, the assay is terminated by the addition of cold TCA.
(§5) Cells are fixed in situ by the gentle addition of 50 μl of cold 50% (w/v) TCA (final concentration, 10% TCA) and incubated for 60 minutes at 4° C. The supernatant is discarded, and the plates are washed five times with tap water and air-dried. Sulforhodamine B (SRB) solution (100 μl) at 0.4% (w/v) in 1% acetic acid is added to each well, and plates are incubated for 10 minutes at room temperature. After staining, unbound dye is removed by washing five times with 1% acetic acid and the plates are air dried. Bound stainis subsequently solubilized with 10 mM trizma base, and the absorbance is read on an automated plate reader at a wavelength of 515 nm. For suspension cells, the methodology is the same except that the assay is terminated by fixing settled cells at the bottom of the wells by gently adding 50 μl of 80% TCA (final concentration, 16% TCA). Using the seven absorbance measurements [time zero, (Tz), control growth, (C), and test growth in the presence of drug at the five concentration levels ( ? )], tile percentage growth is calculated at each of the drug concentrations levels. Percentage growth inhibition is calculated as: [(Ti−Tz)/(C−Tz)]×100 for concentrations for which Ti>/=Tz [(Ti−Tz)/Tz]×100 for concentrations for which Ti<Tz
(§6) Three dose-response parameters are calculated for each experimental agent. Growth inhibition of 50% (GI50) is calculated from [(Ti−Tz)/(C−Tz)]×100=50, which is the drug concentration resulting in a 50% reduction in the net protein increase (as measured by SRB staining) in control cells during the drug incubation. The drug concentration resulting in total growth inhibition (TGI) is calculated from Ti=Tz. The LC50 (concentration of drug resulting in a 50% reduction in the measured protein at the end of the drug treatment as compared to that at the beginning) indicating a net loss of cells following treatment is calculated from [(Ti−Tz)/Tz]×100=−50. Values are calculated for each of these three parameters if the level of activity is reached; however, if the effect is not reached or is exceeded, the value for that parameter is expressed as greater or less than the maximum or minimum concentration tested.

HCC-2998 = test: NCI In Vitro Cell Line Screening; format: cell-based; conditions: Homo sapiens; HCC-2998, Colon Cancer
Procedure: as §3, §4, §5, §6

SK-MEL-5 = test: NCI In Vitro Cell Line Screening; format: cell-based; conditions: Homo sapiens; SK-MEL-5, Melanoma
Procedure: as §3, §4, §5, §6

CAK-1 = test: NCI In Vitro Cell Line Screening; format: cell-based; conditions: Homo sapiens; CAK-1, Renal Cell Carcinoma
Procedure: as §3, §4, §5, §6

LOX IMVI = test: NCI In Vitro Cell Line Screening; format: cell-based; conditions: Homo sapiens, Melanoma
Procedure: as §3, §4, §5, §6

RXF 393 = test: NCI In Vitro Cell Line Screening; format: cell-based; conditions: Homo sapiens; RXF 393, Renal Cell Carcinoma
Procedure: as §3, §4, §5, §6

OVCAR-4 = test: NCI In Vitro Cell Line Screening; format: cell-based; conditions: Homo sapiens; OVCAR-4, Ovarian Carcinoma
Procedure: as §3, §4, §5, §6

NCI-H23 = test: NCI In Vitro Cell Line Screening; format: cell-based; conditions: Homo sapiens; NCI-H23, Non-Small Cell Lung Cancer
Procedure: as §3, §4, §5, §6

[9] = tested on: 60 human tumor cell lines; test: cells; format: cell-based
Source text: The operation of this screen utilizes 60 different human tumor cell lines, representing leukemia, melanoma, and cancers of the lung, colon, brain, ovary, breast, prostate, and kidney. The aim is to prioritize for further evaluation, synthetic compounds or natural product samples showing selective growth inhibition or cell killing of particular tumor cell lines. This screen is unique in that the complexity of a 60-cell line dose response produced by a given compound results in a biological response pattern which can be utilized in pattern recognition algorithms. Using these algorithms, it is possible to assign a putative mechanism of action to a test compound, or to determine that the response pattern is unique and not similar to that of any of the standard prototype compounds included in the NCI database (see DTP Overview tab). In addition, following characterization of various cellular molecular targets in the 60 cell lines, it may be possible to select compounds most likely to interact with a specific molecular target.
as §3
Experimental drugs are solubilized in dimethyl sulfoxide at 400-fold the desired final maximum test concentration and stored frozen prior to use. […]
Cells are fixed in situ by the gentle addition of 50 μl of cold 50% (w/v) TCA (final concentration, 10% TCA) and incubated for 60 minutes at 4° C. […] Bound stainis subsequently solubilized with 10 mM trizma base, and the absorbance is read on an automated plate reader at a wavelength of 515 nm. […] Using the seven absorbance measurements [time zero, (Tz), control growth, (C), and test growth in the presence of drug at the five concentration levels ( ? )], tile percentage growth is calculated at each of the drug concentrations levels. Percentage growth inhibition is calculated as: [(Ti−Tz)/(C−Tz)]×100 for concentrations for which Ti>/=Tz [(Ti−Tz)/Tz]×100 for concentrations for which Ti<Tz
Three dose-response parameters are calculated for each experimental agent. […]

Compound: CCN(CCO)CCCC(C)Nc1ccnc2cc(Cl)ccc12 (centres unmarked) [hydroxychloroquine]
apoptosis induction in peripheral blood T lymphocytes [1]: induce apoptosis | concentration active against CLL cells (CLL cells): ≥ 30 µg/mL

Compound: OC(c1cc(C(F)(F)F)nc2c(C(F)(F)F)cccc12)C1CCCCN1 (centres unmarked) [Mefloquine hydrochloride]
solubility in ethanol ([2]; ethanol): soluble | solubility in water ([2]; water): slightly soluble

IC50 (SU-DHL9): 15 µM | IC50 (SU-DHL1): 20 µM | IC50 (U266): 25 µM | IC50 (RAJI): 30 µM | IC50 (LNCap): 25 µM | IC50 (HCT-116): 12 µM | IC50 (MCF7): 20 µM | IC50 (RPMI8226): 15 µM
Compound: OC(c1cc(C(F)(F)F)nc2c(C(F)(F)F)cccc12)C1CCCCN1 (single isomer, unassigned; (-)) [(−)Mefloquine]
IC50 (10C9): 20 µM | IC50 (MDA-231): 40 µM | activity against CLL cells [3]: activity | passage of the blood brain barrier / accumulation in the brain [4]: does not seem to pass the blood brain barrier

Compound: O[C@H](c1cc(C(F)(F)F)nc2c(C(F)(F)F)cccc12)[C@@H]1CCCCN1 (relative stereo) [Mefloquine, (R*,S*)-(±)-alpha-2-piperidinyl-2,8-bis(trifluoromethyl)-4-quinolinemethanol]
apoptosis induction in CLL cells ([5]; 10 μM, 48 hours exposure): inducing potent apoptosis | apoptosis induction in normal lymphocytes [6]: not against normal lymphocytes

Compound: O[C@H](c1cc(C(F)(F)F)nc2c(C(F)(F)F)cccc12)[C@@H]1CCCCN1 [(+)-mefloquine]
activity against CLL cells [3]: activity | passage of the blood brain barrier / accumulation in the brain [4]: accumulate in the brain

Compound: 2,8-bis-trifluorornethyl-4-quinoline carboxylic acid [Metabolite]
level accumulated in the plasma ([7]; plasma): up to 10 μM | Mean (SD) trough concentration, Plasma ([7]; plasma, ten healthy volunteers, 250 mg once weekly for 16 weeks, steady state at week 16): 9.80 (5.07) μmol · 1^−1 | Mean (SD) trough concentration, Serum ([7]; serum, ten healthy volunteers, 250 mg once weekly for 16 weeks, steady state at week 16): 9.44 (5.00) μmol · 1^−1 | Mean (SD) trough concentration, Whole Blood ([7]; whole blood, ten healthy volunteers, 250 mg once weekly for 16 weeks, steady state at week 16): 4.89 (2.58) μmol · 1^−1

Compound: O[C@H](c1cc(C(F)(F)F)nc2c(C(F)(F)F)cccc12)[C@@H]1CCCCN1 (racemic) [Mefloquine, (R*,S*)-(±)-alpha-2-piperidinyl-2,8-bis(trifluoromethyl)-4-quinolinemethanol]
concentration effective against CLL cells [5]: ≤ 10 µM | bioavailability [8]: 80% | GI50 (NCI-H460): 2.1 µM | GI50 (HCC-2998): 2 µM | GI50 (SK-MEL-5): 2 µM | GI50 (CAK-1): 0.1 µM | GI50 (LOX IMVI): 1.3 µM | GI50 (RXF 393): 1.7 µM | GI50 (OVCAR-4): 1.9 µM | GI50 (NCI-H23): 2.8 µM | CC50 ([9]; Homo sapiens, 48 h, read-out: Mean LC50): 87 µM | GI50 ([9]; Homo sapiens, mean over 60 tumor cell lines, 48 h, SRB): 4 µM | Mean TGI50 ([9]; mean over 60 tumor cell lines, 48 h, SRB): 26 µM | number of the 60 cell lines against which active ([9]; of the 60 cell lines in the screen): 58
